Laboratory results from ChEMBL document CHEMBL3352632 (Bioorg Med Chem, 2014).
The source made the active and inactive calls. The calls are words filed in the database; no cut-off is given here.

Legend:
[1] = Binding affinity to fluorescently-labeled c-KIT1 G-quadruplex DNA (unknown origin) assessed as change in melting temperature by FRET assay
[2] = Binding affinity to fluorescently-labeled c-KIT1 G-quadruplex DNA (unknown origin) assessed as change in melting temperature at 2 uM by FRET assay
[3] = Binding affinity to fluorescently-labeled c-KIT1 G-quadruplex DNA (unknown origin) assessed as change in melting temperature at 2 uM in presence of 20 uM duplex DNA by FRET assay
[4] = Binding affinity to fluorescently-labeled c-KIT1 G-quadruplex DNA (unknown origin) assessed as change in melting temperature at 2 uM in presence of 5 uM c-MYC G-quadruplex DNA by FRET assay
[5] = Binding affinity to fluorescently-labeled c-KIT1 G-quadruplex DNA (unknown origin) assessed as change in melting temperature at 2 uM in presence of 5 uM c-KIT2 G-quadruplex DNA by FRET assay
[6] = Binding affinity to fluorescently-labeled c-KIT1 G-quadruplex DNA (unknown origin) assessed as change in melting temperature at 2 uM in presence of 5 uM h-TELO G-quadruplex DNA by FRET assay
[7] = Binding affinity to fluorescently-labeled c-MYC G-quadruplex DNA (unknown origin) by thiazole-ornage dye based fluorescence intercalator displacement assay
[8] = Binding affinity to fluorescently-labeled c-KIT1 G-quadruplex DNA (unknown origin) by thiazole-ornage dye based fluorescence intercalator displacement assay
[9] = Binding affinity to fluorescently-labeled c-KIT2 G-quadruplex DNA (unknown origin) by thiazole-ornage dye based fluorescence intercalator displacement assay
[10] = Binding affinity to fluorescently-labeled h-TELO G-quadruplex DNA (unknown origin) by thiazole-ornage dye based fluorescence intercalator displacement assay
[11] = Binding affinity to fluorescently-labeled duplex DNA (unknown origin) by thiazole-ornage dye based fluorescence intercalator displacement assay
[12] = Selectivity for fluorescently-labeled c-KIT1 G-quadruplex DNA (unknown origin) over fluorescently-labeled c-KIT2 G-quadruplex DNA (unknown origin)
[13] = Selectivity for fluorescently-labeled c-KIT1 G-quadruplex DNA (unknown origin) over fluorescently-labeled c-MYC G-quadruplex DNA (unknown origin)
[14] = Selectivity for fluorescently-labeled c-KIT1 G-quadruplex DNA (unknown origin) over fluorescently-labeled h-TELO G-quadruplex DNA (unknown origin)
[15] = test system: HepG2; assay: Cytotoxicity against human HepG2 cells after 24 hrs by MTT assay; settings: HepG2, 24 h
[16] = test system: HepG2; assay: Cell cycle arrest in human HepG2 cells assessed as accumulation at G0/G1 phase at 2.5 uM after 12 hrs by propidium iodide staining based flow cytometry (reference value: 53.4%); format: functional
[17] = test system: HepG2; assay: Cell cycle arrest in human HepG2 cells assessed as accumulation at S phase at 2.5 uM after 12 hrs by propidium iodide staining based flow cytometry (reference value: 19.5%); format: functional
[18] = test system: HepG2; assay: Cell cycle arrest in human HepG2 cells assessed as accumulation at G0/G1 phase at 5 uM after 12 hrs by propidium iodide staining based flow cytometry (reference value: 53.4%); format: functional
[19] = test system: HepG2; assay: Cell cycle arrest in human HepG2 cells assessed as accumulation at G2/M phase at 2.5 uM after 12 hrs by propidium iodide staining based flow cytometry (reference value: 25.2%); format: functional
[20] = test system: HepG2; assay: Cell cycle arrest in human HepG2 cells assessed as accumulation at subG0 phase at 2.5 uM after 12 hrs by propidium iodide staining based flow cytometry (reference value: 1.8%); format: functional
[21] = test system: HepG2; assay: Cell cycle arrest in human HepG2 cells assessed as accumulation at S phase at 5 uM after 12 hrs by propidium iodide staining based flow cytometry (reference value: 19.5%); format: functional
[22] = test system: HepG2; assay: Cell cycle arrest in human HepG2 cells assessed as accumulation at G2/M phase at 5 uM after 12 hrs by propidium iodide staining based flow cytometry (reference value: 25.2%); format: functional
[23] = test system: HepG2; assay: Cell cycle arrest in human HepG2 cells assessed as accumulation at subG0 phase at 5 uM after 12 hrs by propidium iodide staining based flow cytometry (reference value: 1.8%); format: functional
[24] = test system: HepG2; assay: Cell cycle arrest in human HepG2 cells assessed as accumulation at G0/G1 phase at 10 uM after 12 hrs by propidium iodide staining based flow cytometry (reference value: […]); format: functional
[25] = test system: HepG2; assay: Cell cycle arrest in human HepG2 cells assessed as accumulation at S phase at 10 uM after 12 hrs by propidium iodide staining based flow cytometry (reference value: 19.10%); format: functional
[26] = test system: HepG2; assay: Cell cycle arrest in human HepG2 cells assessed as accumulation at G2/M phase at 10 uM after 12 hrs by propidium iodide staining based flow cytometry (reference value: […]); format: functional
[27] = test system: HepG2; assay: Cell cycle arrest in human HepG2 cells assessed as accumulation at subG0 phase at 10 uM after 12 hrs by propidium iodide staining based flow cytometry (reference value: 1.8%); format: functional
[28] = test system: HepG2; assay: Induction of apoptosis in human HepG2 cells assessed as early apoptotic cells level at 2.5 uM after 24 hrs by annexin V/propidium iodide double staining based flow cytometry; format: functional
[29] = test system: HepG2; assay: Induction of apoptosis in human HepG2 cells assessed as late apoptotic cells level at 2.5 uM after 24 hrs by annexin V/propidium iodide double staining based flow cytometry; format: functional
[30] = test system: HepG2; assay: Induction of apoptosis in human HepG2 cells assessed as necrotic cells level at 2.5 uM after 24 hrs by annexin V/propidium iodide double staining based flow cytometry; format: functional
[31] = test system: HepG2; assay: Induction of apoptosis in human HepG2 cells assessed as early apoptotic cells level at 5 uM after 24 hrs by annexin V/propidium iodide double staining based flow cytometry; format: functional
[32] = test system: HepG2; assay: Induction of apoptosis in human HepG2 cells assessed as late apoptotic cells level at 5 uM after 24 hrs by annexin V/propidium iodide double staining based flow cytometry; format: functional
[33] = test system: HepG2; assay: Induction of apoptosis in human HepG2 cells assessed as necrotic cells level at 5 uM after 24 hrs by annexin V/propidium iodide double staining based flow cytometry; format: functional
[34] = test system: HepG2; assay: Induction of apoptosis in human HepG2 cells assessed as early apoptotic cells level at 10 uM after 24 hrs by annexin V/propidium iodide double staining based flow cytometry; format: functional
[35] = test system: HepG2; assay: Induction of apoptosis in human HepG2 cells assessed as late apoptotic cells level at 10 uM after 24 hrs by annexin V/propidium iodide double staining based flow cytometry; format: functional
[36] = test system: HepG2; assay: Induction of apoptosis in human HepG2 cells assessed as necrotic cells level at 10 uM after 24 hrs by annexin V/propidium iodide double staining based flow cytometry; format: functional

Activity [1]: Dose-dependent effect
deltaTm [2]: 30.6 K
Activity [3]: inactive
Activity [4]: inactive
Activity [5]: inactive
Activity [6]: inactive
DC50 [7]: 11.3 µM
Kd [7]: 3.8 µM
DC50 [8]: 0.47 µM
Kd [8]: 0.74 µM
DC50 [9]: 9.5 µM
Kd [9]: 22.7 µM
DC50 [10]: 7.3 µM
Kd [10]: 11.6 µM
DC50 [11]: > 25 µM
Selectivity ratio [12]: 30
Selectivity ratio [13]: 5
Selectivity ratio [14]: 15
SMILES: O=C(NCc1cn(-c2ccc(NC(=O)[C@@H]3CCCN3)cc2)nn1)c1cccc(C(=O)NCc2cn(-c3ccc(NC(=O)[C@@H]4CCCN4)cc3)nn2)n1
IC50 [15]: 7.42 µM
Activity [16]: 56.2%
Activity [17]: 13.8%
Activity [18]: 55.5%
Activity [19]: 26.7%
Activity [20]: 3.3%
Activity [21]: 14%
Activity [22]: 24.4%
Activity [23]: 6.1%
Activity [24]: 65.8%
Activity [25]: 8.2%
Activity [26]: 18.4%
Activity [27]: 7.4%
Activity [28]: 0.6%
Activity [29]: 3.9%
Activity [30]: 29.3%
Activity [31]: 0.2%
Activity [32]: 2.6%
Activity [33]: 38.6%
Activity [34]: 7.3%
Activity [35]: 6.7%
Activity [36]: 85.8%
